US12528791B2 (priority 2019, dated 2026)

Columns and labels:
THR-β/RXR-α = target: T1, THR-β/RXR-α (Homo sapiens, UniProt P10828); type: biochemical; details: RXR heterodimer assay; compound activity normalized to T3 for THR-β/RXR-α and THR-α/RXR-α
T1 sequence (P10828 202-461 limits assumed): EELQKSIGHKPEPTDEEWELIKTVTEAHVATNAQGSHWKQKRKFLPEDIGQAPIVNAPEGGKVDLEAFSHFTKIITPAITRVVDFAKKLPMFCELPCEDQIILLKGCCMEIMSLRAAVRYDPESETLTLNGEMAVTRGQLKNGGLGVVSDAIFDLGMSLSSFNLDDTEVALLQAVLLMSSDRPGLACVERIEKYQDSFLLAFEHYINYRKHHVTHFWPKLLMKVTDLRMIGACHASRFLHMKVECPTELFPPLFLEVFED
T1 sequence (P19793 225-462 partner limits assumed): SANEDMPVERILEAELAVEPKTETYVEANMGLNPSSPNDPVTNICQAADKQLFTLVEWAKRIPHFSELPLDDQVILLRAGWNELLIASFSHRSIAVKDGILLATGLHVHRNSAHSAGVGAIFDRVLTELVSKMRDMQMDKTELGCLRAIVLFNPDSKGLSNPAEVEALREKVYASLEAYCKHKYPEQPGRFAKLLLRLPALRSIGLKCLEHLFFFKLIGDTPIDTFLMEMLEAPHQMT
T1 sequence (Q15596 679-703 partner limits assumed): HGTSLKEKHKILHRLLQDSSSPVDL

TR beta-LBD = target: T2, TR beta-LBD (Homo sapiens, UniProt P10828); type: biochemical; details: TR-FRET assay; THR beta over THR alpha, derived from T3-selectivity normalized data
T2 sequence (P10828 217-461 limits assumed): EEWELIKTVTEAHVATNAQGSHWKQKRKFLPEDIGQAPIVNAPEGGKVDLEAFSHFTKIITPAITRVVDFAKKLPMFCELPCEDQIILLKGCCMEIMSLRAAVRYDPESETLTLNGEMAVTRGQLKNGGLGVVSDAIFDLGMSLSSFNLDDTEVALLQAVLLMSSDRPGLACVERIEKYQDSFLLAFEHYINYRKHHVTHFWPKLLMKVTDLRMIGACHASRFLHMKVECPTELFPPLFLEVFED

Compound: Cc1cnc2ccc(Oc3c(Cl)cc(-n4nc(C#N)c(=O)[nH]c4=O)cc3Cl)cc2c1 [Example 16, 2-(3,5-dichloro-4-((3-methylquinolin-6-yl)oxy)phenyl)-3,5-dioxo-2,3,4,5-tetrahydro-1,2,4-triazine-6-carbonitrile]
- THRβ-Selectivity (THR-β/RXR-α): 7.1
- THRβ-Selectivity (TR beta-LBD): 68.1

Compound: Cn1cc2cc(Oc3c(Cl)cc(-n4nc(C#N)c(=O)[nH]c4=O)cc3Cl)ccc2n1 [Example 17, 2-(3,5-dichloro-4-((2-methyl-2H-indazol-5-yl)oxy)phenyl)-3,5-dioxo-2,3,4,5-tetrahydro-1,2,4-triazine-6-carbonitrile]
- THRβ-Selectivity (THR-β/RXR-α): 6.3
- THRβ-Selectivity (TR beta-LBD): 2.2

Compound: Cn1cnc2ccc(Oc3c(Cl)cc(-n4nc(C#N)c(=O)[nH]c4=O)cc3Cl)cc21 [Example 19, 2-(3,5-dichloro-4-((1-methyl-1H-benzo[d]imidazol-6-yl)oxy)phenyl)-3,5-dioxo-2,3,4,5-tetrahydro-1,2,4-triazine-6-carbonitrile]
- THRβ-Selectivity (THR-β/RXR-α): 5.6
- THRβ-Selectivity (TR beta-LBD): 38.0

Compound: CC(C)n1cnc2ccc(Oc3c(Cl)cc(NC(=O)c4noc(=O)[nH]4)cc3Cl)cc21 [Example 20, N-(3,5-dichloro-4-((1-isopropyl-1H-benzo[d]imidazol-6-yl)oxy)phenyl)-5-oxo-4,5-dihydro-1,2,4-oxadiazole-3-carboxamide]
- THRβ-Selectivity (THR-β/RXR-α): 11.3
- THRβ-Selectivity (TR beta-LBD): 348.9

Compound: CC(C)n1cnc2ccc(Oc3c(Cl)cc(-n4nc(C#N)c(=O)[nH]c4=O)cc3Cl)cc21 [Example 21, 2-(3,5-dichloro-4-((1-isopropyl-1H-benzo[d]imidazol-6-yl)oxy)phenyl)-3,5-dioxo-2,3,4,5-tetrahydro-1,2,4-triazine-6-carbonitrile]
- THRβ-Selectivity (THR-β/RXR-α): 10.9
- THRβ-Selectivity (TR beta-LBD): 12.9

Compound: O=C(Nc1cc(Cl)c(Oc2ccc3ncn(C4CC4)c3c2)c(Cl)c1)c1noc(=O)[nH]1 [Example 22, N-(3,5-dichloro-4-((1-cyclopropyl-1H-benzo[d]imidazol-6-yl)oxy)phenyl)-5-oxo-4,5-dihydro-1,2,4-oxadiazole-3-carboxamide]
- THRβ-Selectivity (THR-β/RXR-α): 5.9
- THRβ-Selectivity (TR beta-LBD): >253.0

Compound: N#Cc1nn(-c2cc(Cl)c(Oc3ccc4ncn(C5CC5)c4c3)c(Cl)c2)c(=O)[nH]c1=O [Example 23, 2-(3,5-dichloro-4-((1-cyclopropyl-1H-benzo[d]imidazol-6-yl)oxy)phenyl)-3,5-dioxo-2,3,4,5-tetrahydro-1,2,4-triazine-6-carbonitrile]
- THRβ-Selectivity (THR-β/RXR-α): 5.7
- THRβ-Selectivity (TR beta-LBD): 20.2

Compound: O=C(Nc1cc(Cl)c(Oc2ccc3nc(C4CC4)ccc3c2)c(Cl)c1)c1noc(=O)[nH]1 [Example 24, N-(3,5-dichloro-4-((2-cyclopropylquinolin-6-yl)oxy)phenyl)-5-oxo-4,5-dihydro-1,2,4-oxadiazole-3-carboxamide]
- THRβ-Selectivity (THR-β/RXR-α): 4.8
- THRβ-Selectivity (TR beta-LBD): 8.1

Compound: Cc1ccnc2ccc(Oc3c(Cl)cc(NC(=O)c4noc(=O)[nH]4)cc3Cl)cc12 [Example 25, N-(3,5-dichloro-4-((4-methylquinolin-6-yl)oxy)phenyl)-5-oxo-4,5-dihydro-1,2,4-oxadiazole-3-carboxamide]
- THRβ-Selectivity (THR-β/RXR-α): 5.7
- THRβ-Selectivity (TR beta-LBD): 1286.7
